Tested on: panel of 484 cancer cell lines
Experiment: PRISM cancer cell line profiling, 5 days
Format: cell-based
Design: AUC: unit not given beside the values
Procedure: Cancer cell line profiling was performed using the Broad’s PRISM platform. Cell treatment and data analysis were performed as described in Yu et al[42]. Raw Luminex signal was converted to AUC values for each cell line as described. The resulting AUC profile for each compound was modeled against DepMap using the limma package in R[71]. Because hotspot mutation analysis was performed against DepMap, TP53 annotations in Fig. 6c,d are directly from DepMap.

## CN1CCN(CCC(=O)Nc2ccc3c(=O)n(CC4(O)CCN(C(=O)[C@@H](CCCNC(=O)c5ccc6c(Cl)c7c(nc6c5)CCCC7)Cc5ccccc5)CC4)cnc3c2)CC1 [XL177A]
8MGBA_CENTRAL_NERVOUS_SYSTEM
  AUC: 1.174
22RV1_PROSTATE
  AUC: 0.9618
42MGBA_CENTRAL_NERVOUS_SYSTEM
  AUC: 1
253JBV_URINARY_TRACT
  AUC: 0.9502
253J_URINARY_TRACT
  AUC: 1.095
639V_URINARY_TRACT
  AUC: 0.832
647V_URINARY_TRACT
  AUC: 1.06
769P_KIDNEY
  AUC: 1.126
786O_KIDNEY
  AUC: 1.266
5637_URINARY_TRACT
  AUC: 1.038
8305C_THYROID
  AUC: 1.048
8505C_THYROID
  AUC: 0.9221
2313287_STOMACH
  AUC: 1.154
A101D_SKIN
  AUC: 1.013
A172_CENTRAL_NERVOUS_SYSTEM
  AUC: 0.8471
A204_SOFT_TISSUE
  AUC: 0.8422
A375_SKIN
  AUC: 1.23
A549_LUNG
  AUC: 0.8217
A673_BONE
  AUC: 1.349
A704_KIDNEY
  AUC: 1.109
A2058_SKIN
  AUC: 0.9507
A2780_OVARY
  AUC: 0.804
ABC1_LUNG
  AUC: 1.07
ACCMESO1_PLEURA
  AUC: 1.035
ACHN_KIDNEY
  AUC: 1.124
AGS_STOMACH
  AUC: 0.9408
AN3CA_ENDOMETRIUM
  AUC: 0.9198
ASPC1_PANCREAS
  AUC: 1.1544
BC3C_URINARY_TRACT
  AUC: 1.1182
BCPAP_THYROID
  AUC: 0.9965
BECKER_CENTRAL_NERVOUS_SYSTEM
  AUC: 0.8518
BEN_LUNG
  AUC: 1.124
BFTC905_URINARY_TRACT
  AUC: 0.8686
BFTC909_KIDNEY
  AUC: 0.9138
BHT101_THYROID
  AUC: 0.9801
BICR6_UPPER_AERODIGESTIVE_TRACT
  AUC: 0.8445
BICR16_UPPER_AERODIGESTIVE_TRACT
  AUC: 0.8236
BICR31_UPPER_AERODIGESTIVE_TRACT
  AUC: 0.8691
BICR56_UPPER_AERODIGESTIVE_TRACT
  AUC: 0.8298
BT474_BREAST
  AUC: 1.426
BT549_BREAST
  AUC: 0.9189
BXPC3_PANCREAS
  AUC: 1.188
CADOES1_BONE
  AUC: 1.097
CAKI1_KIDNEY
  AUC: 1.0035
CAL12T_LUNG
  AUC: 1.065
CAL27_UPPER_AERODIGESTIVE_TRACT
  AUC: 0.8579
CAL29_URINARY_TRACT
  AUC: 0.9717
CAL51_BREAST
  AUC: 0.9698
CAL54_KIDNEY
  AUC: 1.122
CAL62_THYROID
  AUC: 0.9897
CAL78_BONE
  AUC: 0.8669
CAL120_BREAST
  AUC: 0.8877
CALU1_LUNG
  AUC: 1.403
CALU6_LUNG
  AUC: 0.9933
CAMA1_BREAST
  AUC: 0.994
CAOV3_OVARY
  AUC: 1.046
CAPAN2_PANCREAS
  AUC: 1.09
CCFSTTG1_CENTRAL_NERVOUS_SYSTEM
  AUC: 0.9028
CFPAC1_PANCREAS
  AUC: 1.131
CHL1_SKIN
  AUC: 1.028
CJM_SKIN
  AUC: 0.9117
CL34_LARGE_INTESTINE
  AUC: 1.2091
COLO668_LUNG
  AUC: 0.9325
COLO679_SKIN
  AUC: 0.9271
COLO680N_OESOPHAGUS
  AUC: 0.903
COLO741_SKIN
  AUC: 1.181
COLO783_SKIN
  AUC: 0.896
COLO792_SKIN
  AUC: 1.217
COLO800_SKIN
  AUC: 0.9306
CORL23_LUNG
  AUC: 0.9099
CORL105_LUNG
  AUC: 0.9151
COV362_OVARY
  AUC: 0.9501
COV434_OVARY
  AUC: 0.6134
DANG_PANCREAS
  AUC: 1.103
DAOY_CENTRAL_NERVOUS_SYSTEM
  AUC: 0.9019
DBTRG05MG_CENTRAL_NERVOUS_SYSTEM
  AUC: 0.986
DETROIT562_UPPER_AERODIGESTIVE_TRACT
  AUC: 0.8984
DKMG_CENTRAL_NERVOUS_SYSTEM
  AUC: 1.055
DMS273_LUNG
  AUC: 0.9756
DU145_PROSTATE
  AUC: 0.9953
DV90_LUNG
  AUC: 0.6429
DepMap TP53 mutation annotation
  ∆ (AUC, TP53 mutation vs WT; decreased sensitivity): 0.0512
EBC1_LUNG
  AUC: 0.8513
ECGI10_OESOPHAGUS
  AUC: 1.105
EFM192A_BREAST
  AUC: 1.042
EFO21_OVARY
  AUC: 0.9443
EFO27_OVARY
  AUC: 0.9949
EN_ENDOMETRIUM
  AUC: 1.056
ES2_OVARY
  AUC: 1.069
ESS1_ENDOMETRIUM
  AUC: 0.9952
EWS502_BONE
  AUC: 1.4146
FADU_UPPER_AERODIGESTIVE_TRACT
  AUC: 1.156
FTC133_THYROID
  AUC: 0.8526
FTC238_THYROID
  AUC: 0.8658
G292CLONEA141B1_BONE
  AUC: 1.276
G361_SKIN
  AUC: 1.1047
G401_SOFT_TISSUE
  AUC: 0.6407
G402_SOFT_TISSUE
  AUC: 0.5799
GAMG_CENTRAL_NERVOUS_SYSTEM
  AUC: 1.102
GB1_CENTRAL_NERVOUS_SYSTEM
  AUC: 1.09
GCIY_STOMACH
  AUC: 1.0232
GCT_SOFT_TISSUE
  AUC: 1.012
GI1_CENTRAL_NERVOUS_SYSTEM
  AUC: 1.111
GMS10_CENTRAL_NERVOUS_SYSTEM
  AUC: 1.007
GOS3_CENTRAL_NERVOUS_SYSTEM
  AUC: 0.7415
GP2D_LARGE_INTESTINE
  AUC: 1.073
H4_CENTRAL_NERVOUS_SYSTEM
  AUC: 0.8128
HARA_LUNG
  AUC: 1.29
HCC15_LUNG
  AUC: 0.9559
HCC38_BREAST
  AUC: 1.2075
HCC44_LUNG
  AUC: 0.9515
HCC56_LARGE_INTESTINE
  AUC: 1.407
HCC78_LUNG
  AUC: 1.024
HCC95_LUNG
  AUC: 0.9165
HCC366_LUNG
  AUC: 0.9914
HCC827_LUNG
  AUC: 0.8612
HCC1143_BREAST
  AUC: 1.083
HCC1195_LUNG
  AUC: 0.8483
HCC1359_LUNG
  AUC: 1.123
HCC1419_BREAST
  AUC: 1.047
HCC1428_BREAST
  AUC: 0.8065
